A word on the IC50: it is the midpoint of a concentration-inhibition curve.

For the test, the target named is T1, Full-length human PRMT6 (Homo sapiens, UniProt Q96LA8).
T1 construct: Flag-PRMT6-His was eluted with 200 ug/ml FLAG peptide in the same buffer; made in house; host or cells: HEK 293F cells (BacMam virus, pFastBacMam)
The experiment in a line: PRMT6 biochemical assay (3H-SAM Flashplate, peptide substrate). A digest of the protocol:
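Read-out is 3H-methylated histone H4 (36-50) peptide bound to streptavidin Flashplates after a cold-SAM stop. Baculovirus-expressed Flag-PRMT6-His met compound for 30 min at room temperature before SAM and peptide; Bicine pH 7.6 buffer. IC50 fitted to % inhibition normalized to SAH (min) and DMSO (max).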

T1 sequence (Q96LA8 with tags, fused parts or gaps): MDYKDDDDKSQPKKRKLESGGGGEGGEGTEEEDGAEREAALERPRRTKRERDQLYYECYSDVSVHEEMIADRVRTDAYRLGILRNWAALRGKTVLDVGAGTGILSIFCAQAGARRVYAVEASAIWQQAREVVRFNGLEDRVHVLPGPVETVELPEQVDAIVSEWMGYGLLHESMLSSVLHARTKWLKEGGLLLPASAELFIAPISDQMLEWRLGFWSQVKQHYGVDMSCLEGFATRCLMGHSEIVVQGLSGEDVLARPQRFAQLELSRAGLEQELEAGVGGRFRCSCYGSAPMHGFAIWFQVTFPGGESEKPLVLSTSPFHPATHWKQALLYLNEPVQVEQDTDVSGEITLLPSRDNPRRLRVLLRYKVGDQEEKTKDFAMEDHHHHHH

As to `CN(CCN)Cc1cn[nH]c1-c1ccc(F)cc1` [Compound 1], the IC50 is less than 100 nM. Take `CNCCN(C)Cc1c[nH]nc1-c1ccc(F)cc1` [Compound 2, N^1-((3-(4-fluorophenyl)-1H-pyrazol-4-yl)methyl)-N^1,N^2-dimethylethane-1,2-diamine]: the IC50 is less than 100 nM.

Regarding `CN(CCN)Cc1cn(C)nc1-c1ccc(F)cc1` [Compound 3], the IC50 is less than 100 nM.

In the case of `CN(CCN)Cc1cnn(C)c1-c1ccc(F)cc1` [Compound 4], the IC50 is less than 100 nM.

Take `CNCCN(C)Cc1cnn(CC2CCOCC2)c1-c1ccc(F)cc1` [Compound 12]: the IC50 fell in the range of 101 to 1000 nM.

As to `CNCCN(C)Cc1c[nH]nc1-c1cccc(N)c1` [Compound 32], the IC50 is less than 100 nM.

On to `CNCCN(C)Cc1c[nH]nc1-c1ccc(CC#N)cc1` [Compound 34], for which the IC50 was less than 100 nM. `CNCCN(C)Cc1c[nH]nc1-c1ccccc1O` [Compound 35] showed an IC50 of 101 to 1000 nM.

`CNCCN(C)Cc1c[nH]nc1-c1ccccc1Oc1ccccc1` [Compound 36]: the IC50 lay in the range of 1010 to 3000 nM. Compound `CNCCN(C)Cc1c[nH]nc1-c1cccc(OC(F)(F)F)c1` [Compound 39] returned an IC50 of less than 100 nM. `CNCCN(C)Cc1c[nH]nc1-c1ccccc1NS(C)(=O)=O` [Compound 41] yielded an IC50 of 3010 to 10000 nM. With `CNCCN(C)Cc1c[nH]nc1-c1cccc(NC(C)=O)c1` [Compound 42] the figure was less than 100 nM; with `CNCCN(C)Cc1c[nH]nc1-c1cccc(C(C)=O)c1` [Compound 44], less than 100 nM; with `CNCCN(C)Cc1c[nH]nc1-c1ccc(C(=O)c2ccccc2)cc1` [Compound 45], less than 100 nM. To `CNCCN(C)Cc1c[nH]nc1-c1ccccc1-c1ccccc1` [Compound 46] belongs 3010 to 10000 nM.

`CNCCN(C)Cc1c[nH]nc1-c1ccc(-c2ccccc2)cc1` [Compound 47] had an IC50 of less than 100 nM. With `CNCCN(C)Cc1c[nH]nc1-c1ccccc1F` [Compound 48] the figure was less than 100 nM; with `CNCCN(C)Cc1c[nH]nc1-c1ccc(F)cc1F` [Compound 49], less than 100 nM; with `CNCCN(C)Cc1c[nH]nc1-c1cc(F)ccc1F` [Compound 50], less than 100 nM.

For the compound `CNCCN(C)Cc1c[nH]nc1-c1ccc(F)c(F)c1` [Compound 51], the IC50 is less than 100 nM.

In the case of `CNCCN(C)Cc1c[nH]nc1-c1ccc(OC)c(F)c1` [Compound 52], the IC50 was less than 100 nM.

For `CNCCN(C)Cc1c[nH]nc1-c1cc(Cl)ccc1OC` [Compound 53], the IC50 was 101 to 1000 nM. Consider `CNCCN(C)Cc1c[nH]nc1-c1cccc(OC)c1OC` [Compound 54], for which the IC50 is 101 to 1000 nM. In turn, `CNCCN(C)Cc1c[nH]nc1-c1ccc(OC)cc1OC` [Compound 55] yielded an IC50 of less than 100 nM. `CNCCN(C)Cc1c[nH]nc1-c1c(OC)cccc1OC` [Compound 56] had an IC50 of 1010 to 3000 nM. Regarding `CNCCN(C)Cc1c[nH]nc1-c1cccc2ccccc12` [Compound 57], the half-inhibitory concentration (IC50) was less than 100 nM. The compound `CNCCN(C)Cc1c[nH]nc1-c1ccc2ccccc2c1` [Compound 58] returned an IC50 of less than 100 nM. In the case of `CNCCN(C)Cc1cn(CCC(O)CO)nc1-c1ccc(F)cc1` (centres unmarked) [Compound 59], the IC50 lay in the range of 101 to 1000 nM.

`CCNCCN(C)Cc1c[nH]nc1-c1ccc(F)cc1` [Compound 60] came in with an IC50 of less than 100 nM.

`CCN(CCN)Cc1c[nH]nc1-c1ccc(F)cc1` [Compound 62] gave an IC50 of less than 100 nM. Consider `CCCN(CCN)Cc1c[nH]nc1-c1ccc(F)cc1` [Compound 63], for which the IC50 is 1010 to 3000 nM.

`COCCn1ncc(CN(C)CCN(C)C)c1-c1ccc(F)cc1` [Compound 64] registered an IC50 of 1010 to 3000 nM. To `CN(CCN)Cc1cnn(CCO)c1-c1ccc(F)cc1` [Compound 65] belongs 101 to 1000 nM; to `CN(CCN)Cc1cn(CCO)nc1-c1ccc(F)cc1` [Compound 66], 1010 to 3000 nM; to `CN(CCN)Cc1c[nH]nc1-c1ccc(C#N)cc1` [Compound 68], less than 100 nM. Turning to `CN(CCN)Cc1n[nH]cc1-c1ccc(F)cc1` [Compound 69], the IC50 was less than 100 nM. With `CN(CCN)Cc1c[nH]nc1-c1cccc(C#N)c1` [Compound 70] the figure was less than 100 nM; with `CN(CCN)Cc1c[nH]nc1-c1cccc(F)c1` [Compound 71], less than 100 nM; with `CN(CCN)Cc1c[nH]nc1-c1ccccc1F` [Compound 72], less than 100 nM. In turn, `CN(CCN)Cc1c[nH]nc1-c1ccccc1` [Compound 73] came in with an IC50 of less than 100 nM. For `CN(CCN)Cc1c[nH]nc1-c1ccc(C(C)(C)C)cc1` [Compound 74], the IC50 was less than 100 nM.

As to `CC(C)N(CCN)Cc1c[nH]nc1-c1ccc(F)cc1` [Compound 75], the IC50 lay within 1010 to 3000 nM. For `CN(CCN)Cc1cn(CC(O)CO)nc1-c1ccc(F)cc1` (centres unmarked) [Compound 76], the IC50 lay in the range of 1010 to 3000 nM. `CN(CCN)Cc1cn(C2COC2)nc1-c1ccc(F)cc1` [Compound 77] showed an IC50 of 101 to 1000 nM.

Take `NCCN(Cc1c[nH]nc1-c1ccc(F)cc1)C1CC1` [Compound 78]: the IC50 was less than 100 nM. `CN(CCN)Cc1cnn(C2COC2)c1-c1ccc(F)cc1` [Compound 81] registered an IC50 of 101 to 1000 nM. In turn, `CN(CCN)Cc1c[nH]nc1-c1ccc(N2CCNCC2)cc1` [Compound 82] came in with an IC50 of 101 to 1000 nM.

Take `CN(CCN)Cc1nn(C)cc1-c1ccc(C#N)cc1` [Compound 83]: the IC50 is less than 100 nM. `CN(CCN)Cc1c[nH]nc1-c1ccc(C(F)(F)F)cc1C(F)(F)F` [Compound 85] showed an IC50 of 101 to 1000 nM. In turn, `CN(CCN)Cc1c[nH]nc1-c1ccc(Cl)cc1Cl` [Compound 86] showed an IC50 of less than 100 nM. As for `COc1ccc(-c2n[nH]cc2CN(C)CCN)c(OC)c1` [Compound 87], the IC50 fell in the range of 101 to 1000 nM.

`Cc1ccc(-c2n[nH]cc2CN(C)CCN)c(C)c1` [Compound 88] displayed an IC50 of less than 100 nM.

On to `CN(CCN)Cc1c[nH]nc1-c1ccc(F)cc1Cl` [Compound 89], for which the IC50 is less than 100 nM. To `Cc1ccc(-c2n[nH]cc2CN(C)CCN)c(Cl)c1` [Compound 90] belongs less than 100 nM; to `Cc1ccc(Cl)c(-c2n[nH]cc2CN(C)CCN)c1` [Compound 91], 101 to 1000 nM; to `CN(CCN)Cc1c[nH]nc1-c1ccc(C(F)(F)F)cc1` [Compound 92], less than 100 nM. `CN(CCN)Cc1c[nH]nc1-c1ccc(OC(F)(F)F)cc1` [Compound 93]: the IC50 is less than 100 nM. As to `CN(CCN)Cc1c[nH]nc1-c1ccc(OC(F)F)cc1` [Compound 94], the IC50 was less than 100 nM. `CC(C)Oc1ccc(-c2n[nH]cc2CN(C)CCN)cc1Cl` [Compound 168] showed an IC50 of less than 100 nM.
